Assay results reported in US20080200403A1, “9A-Carbamoyl and Thiocarbamoyl Azalides with Anti-Inflammatory Activity” (GLAXOSMITHKLINE, priority 2005, published 2008).
Where two headings read alike, the source gives them in different places.

Key:
Assay type in all cases: cell-based
TNF-α = assay: Inhibition of TNF-α production by stimulated human peripheral blood leukocytes in vitro; settings: PBL; for inhibition at 10 µM / inhibition at 50 µM: Homo sapiens, Leukocyte, read-out: Percentage of inhibition of TNF-α production
Procedure, shortened: (§1)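 Dextran-isolated human PBL (3-5×10^6 per well) in RPMI with 10% FCS were preincubated 2 h at 37 °C with compounds at 50 μM or 10 μM final, then stimulated overnight with 2 μg/mL LPS, 1 μg/mL PMA or 120 μg/mL zymosan. Supernatant cytokines by sandwich ELISA; % inhibition versus stimulated untreated control.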

IL-1α = assay: Inhibition of IL-1 production by stimulated human peripheral blood leukocytes in vitro; settings: PBL; for inhibition at 10 µM / inhibition at 50 µM: Homo sapiens, Leukocyte, read-out: Percentage of inhibition of IL-1α production
IL-6 = assay: Inhibition of IL-6 production by stimulated human peripheral blood leukocytes in vitro; settings: PBL; for inhibition at 10 µM / inhibition at 50 µM: Homo sapiens, Leukocyte, read-out: Percentage of inhibition of IL-6 production
Procedure, shortened: as §1

IL-8 = assay: Inhibition of IL-8 production by stimulated human peripheral blood leukocytes in vitro; settings: PBL; for inhibition at 10 µM / inhibition at 50 µM: Homo sapiens, Leukocyte, read-out: Percentage of inhibition of IL-8 production
Procedure, shortened: as §1

[1] = test system: human peripheral blood mononuclear cells (PBMC); assay: Human T-cell proliferation in vitro (3H-thymidine incorporation); settings: for inhibition at 10 µM / inhibition at 50 µM: Homo sapiens, PBMC, read-out: Percentage of inhibition of proliferation of stimulated PBMC
Method: Influence of substances at two different concentrations (50 μM and 10 μM) on cell proliferation of human peripheral blood mononuclear cells (PBMC) was assessed.
Heparinized peripheral blood was obtained from healthy donors, and PBMC were isolated by Histopaque 1077 (Sigma, USA) density centrifugation at 400×g for 30 minutes. 5×10^4 cells/well were cultured for 3 days in the RPMI medium as described above, in the presence (positive control) or absence (negative control) of stimulators [PHA (2.5 μg/mL) (Sigma, USA), or both PMA (10 ng/mL) (Sigma, USA) and ionomycin (500 ng/mL) (Calbiochem, USA)], and in the presence of the test compounds, at 37° C. in an atmosphere of 5% CO2 and 90% humidity. The cells were pulsed with 1 μCi of ^3H-thymidine (Amersham, USA) per well during the last 18 h of the culture, and were harvested on the 96-well filter (Packard Bioscience, USA) using a multiple cell harvester (Packard, USA). The incorporation of ^3H-thymidine in activated cells were measured using TopCount NXT (Packard, USA).
Inhibition (as percentage) was calculated using the following formula: % inhibition=(1−(^3H)thymidine incorporation expressed in counts per minute (cpm) in sample/(^3H)thymidine incorporation expressed in cpm in positive control)×100
where positive control refers to stimulated samples, not treated with substances.

Hep G2 = assay: MTT cytotoxicity assay on Hep G2 cell line; settings: human, 24 h
Method: To determine whether the anti-inflammatory activity of the test compounds was due to observed inhibition of cytokine production and inhibition of proliferation in vitro, and was not a consequence of cellular cytotoxicity, measurement of succinate dehydrogenase activity in living cells was performed. Cells were cultured for 24 h in RPMI medium as described above at 37° C. in the presence of the test compounds at concentrations of 50 μM and 12.5 μM. MTT [3-(4,5-dimethylthiazole-2-yl)-2,5-diphenyl tetrazolium bromide] (Promega, USA), a detection reagent, was then added and the cultures were incubated for 0.5-2 h. The amount of MTT-Formazan produced was determined using a spectrophotometer at 490 nm (Mosmann, J. Imnunol. Methods, 1983, 65: 55-63). Percentage of viable cells was calculated using the following formula:
% viable cells=([…]OD490 treated cells/OD490 nontreated cells)×100

[2] = zymosan stimulated, compound 10 μM
[3] = zymosan stimulated, compound 50 μM
[4] = PMA + ionomycin stimulated, compound 10 μM
[5] = PMA + ionomycin stimulated, compound 50 μM

CC[C@H]1OC(=O)[C@H](C)[C@@H](O[C@H]2C[C@@](C)(OC)[C@@H](O)[C@H](C)O2)[C@H](C)[C@@H](O[C@@H]2O[C@H](C)C[C@H](N(C)C)[C@H]2O)[C@](C)(O)C[C@@H](C)CN(C)[C@H](C)[C@@H](O)[C@]1(C)O [Azithromycin, azithromycin, reference compound]
inhibition at 10 µM (TNF-α; LPS stimulated, compound 10 μM): 36%
inhibition at 50 µM (TNF-α; LPS stimulated, compound 50 μM): 20%
inhibition at 10 µM (TNF-α; PMA stimulated, compound 10 μM): 0%
inhibition at 50 µM (TNF-α; PMA stimulated, compound 50 μM): 0%
inhibition at 10 µM (TNF-α; [2]): 6%
inhibition at 50 µM (TNF-α; [3]): 64%
inhibition at 10 µM (IL-1α; LPS stimulated, compound 10 μM): 28%
inhibition at 50 µM (IL-1α; LPS stimulated, compound 50 μM): 48%
inhibition at 10 µM (IL-1α; PMA stimulated, compound 10 μM): 0%
inhibition at 50 µM (IL-1α; PMA stimulated, compound 50 μM): 0%
inhibition at 10 µM (IL-1α; [2]): 20%
inhibition at 50 µM (IL-1α; [3]): 75%
inhibition at 10 µM (IL-6; LPS stimulated, compound 10 μM): 15%
inhibition at 50 µM (IL-6; LPS stimulated, compound 50 μM): 40%
inhibition at 10 µM (IL-6; PMA stimulated, compound 10 μM): 0%
inhibition at 50 µM (IL-6; PMA stimulated, compound 50 μM): 0%
inhibition at 10 µM (IL-6; [2]): 20%
inhibition at 50 µM (IL-6; [3]): 75%
inhibition at 10 µM (IL-8; LPS stimulated, compound 10 μM): 0%
inhibition at 50 µM (IL-8; LPS stimulated, compound 50 μM): 0%
inhibition at 10 µM (IL-8; PMA stimulated, compound 10 μM): 0%
inhibition at 50 µM (IL-8; PMA stimulated, compound 50 μM): 0%
inhibition at 10 µM (IL-8; [2]): 0%
inhibition at 50 µM (IL-8; [3]): 0%
inhibition at 10 µM ([1]; PHA stimulated, compound 10 μM): 5%
inhibition at 50 µM ([1]; PHA stimulated, compound 50 μM): 29%
inhibition at 10 µM [1, 4]: 9%
inhibition at 50 µM [1, 5]: 31%
Percentage of viable cells after treatment (Hep G2; 12.5 μM): 100%
Percentage of viable cells after treatment (Hep G2; 50 μM): >95%

CC[C@H]1OC(=O)[C@H](C)[C@@H](O[C@H]2C[C@@](C)(OC)[C@@H](O)[C@H](C)O2)[C@H](C)[C@@H](O[C@@H]2O[C@H](C)C[C@H](N(C)C)[C@H]2O)[C@](C)(OC)C[C@@H](C)C(=O)[C@H](C)[C@@H](O)[C@]1(C)O [Clarithromycin, clarithromycin, reference compound]
inhibition at 10 µM (TNF-α; LPS stimulated, compound 10 μM): 0%
inhibition at 50 µM (TNF-α; LPS stimulated, compound 50 μM): 0%
inhibition at 10 µM (TNF-α; PMA stimulated, compound 10 μM): 0%
inhibition at 50 µM (TNF-α; PMA stimulated, compound 50 μM): 0%
inhibition at 10 µM (TNF-α; [2]): 0%
inhibition at 50 µM (TNF-α; [3]): 0%
inhibition at 10 µM (IL-1α; LPS stimulated, compound 10 μM): 0%
inhibition at 50 µM (IL-1α; LPS stimulated, compound 50 μM): 0%
inhibition at 10 µM (IL-1α; PMA stimulated, compound 10 μM): 26%
inhibition at 50 µM (IL-1α; PMA stimulated, compound 50 μM): 33%
inhibition at 10 µM (IL-1α; [2]): 36%
inhibition at 50 µM (IL-1α; [3]): 59%
inhibition at 10 µM (IL-6; LPS stimulated, compound 10 μM): 11%
inhibition at 50 µM (IL-6; LPS stimulated, compound 50 μM): 0%
inhibition at 10 µM (IL-6; PMA stimulated, compound 10 μM): 0%
inhibition at 50 µM (IL-6; PMA stimulated, compound 50 μM): 0%
inhibition at 10 µM (IL-6; [2]): 28%
inhibition at 50 µM (IL-6; [3]): 0%
inhibition at 10 µM (IL-8; LPS stimulated, compound 10 μM): 23%
inhibition at 50 µM (IL-8; LPS stimulated, compound 50 μM): 0%
inhibition at 10 µM (IL-8; PMA stimulated, compound 10 μM): 33%
inhibition at 50 µM (IL-8; PMA stimulated, compound 50 μM): 0%
inhibition at 10 µM (IL-8; [2]): 0%
inhibition at 50 µM (IL-8; [3]): 0%
inhibition at 10 µM ([1]; PHA stimulated, compound 10 μM): 0%
inhibition at 50 µM ([1]; PHA stimulated, compound 50 μM): 7%
inhibition at 10 µM [1, 4]: 9%
inhibition at 50 µM [1, 5]: 14%
Percentage of viable cells after treatment (Hep G2; 12.5 μM): 100%
Percentage of viable cells after treatment (Hep G2; 50 μM): 100%

CCC1OC(=O)C(C)C(O)C(C)C(OC2OC(C)CC(N(C)C)C2O)C(C)(O)CC(C)CN(C(=S)NCc2ccccc2)C(C)C(O)C1(C)O (stereo not drawn) [Compound 1]
Percentage of inhibition of TNF-α production (TNF-α; LPS stimulated, compound 10 μM): 0%
Percentage of inhibition of TNF-α production (TNF-α; LPS stimulated, compound 50 μM): 33%
Percentage of inhibition of TNF-α production (TNF-α; PMA stimulated, compound 10 μM): 2%
Percentage of inhibition of TNF-α production (TNF-α; PMA stimulated, compound 50 μM): 37%
Percentage of inhibition of TNF-α production (TNF-α; [2]): 34%
Percentage of inhibition of TNF-α production (TNF-α; [3]): 72%
Percentage of inhibition of IL-1α production (IL-1α; LPS stimulated, compound 10 μM): 52%
Percentage of inhibition of IL-1α production (IL-1α; LPS stimulated, compound 50 μM): 78%
Percentage of inhibition of IL-1α production (IL-1α; PMA stimulated, compound 10 μM): 38%
Percentage of inhibition of IL-1α production (IL-1α; PMA stimulated, compound 50 μM): 47%
Percentage of inhibition of IL-1α production (IL-1α; [2]): 65%
Percentage of inhibition of IL-1α production (IL-1α; [3]): 57%
Percentage of inhibition of IL-6 production (IL-6; LPS stimulated, compound 10 μM): 4%
Percentage of inhibition of IL-6 production (IL-6; LPS stimulated, compound 50 μM): 22%
Percentage of inhibition of IL-6 production (IL-6; PMA stimulated, compound 10 μM): 22%
Percentage of inhibition of IL-6 production (IL-6; PMA stimulated, compound 50 μM): 21%
Percentage of inhibition of IL-6 production (IL-6; [2]): 23%
Percentage of inhibition of IL-6 production (IL-6; [3]): 59%
Percentage of inhibition of IL-8 production (IL-8; LPS stimulated, compound 10 μM): 40%
Percentage of inhibition of IL-8 production (IL-8; LPS stimulated, compound 50 μM): 0%
Percentage of inhibition of IL-8 production (IL-8; PMA stimulated, compound 10 μM): 4%
Percentage of inhibition of IL-8 production (IL-8; PMA stimulated, compound 50 μM): 0%
Percentage of inhibition of IL-8 production (IL-8; [2]): 12%
Percentage of inhibition of IL-8 production (IL-8; [3]): 79%
Percentage of inhibition of proliferation of stimulated PBMC ([1]; PHA stimulated, compound 10 μM): 21%
Percentage of inhibition of proliferation of stimulated PBMC ([1]; PHA stimulated, compound 50 μM): 95%
Percentage of inhibition of proliferation of stimulated PBMC [1, 4]: 10%
Percentage of inhibition of proliferation of stimulated PBMC [1, 5]: 52%

CC[C@H]1OC(=O)[C@H](C)[C@@H](O[C@H]2C[C@@](C)(OC)[C@@H](O)[C@H](C)O2)[C@H](C)[C@@H](O[C@@H]2O[C@H](C)C[C@H](N(C)C)[C@H]2O)[C@](C)(O)C[C@@H](C)CN(C(=S)Nc2cccc(C(F)(F)F)c2)[C@H](C)[C@@H](O)[C@]1(C)O [Compound 4]
inhibition at 10 µM (TNF-α; LPS stimulated, compound 10 μM): 39%
inhibition at 50 µM (TNF-α; LPS stimulated, compound 50 μM): 100%
inhibition at 10 µM (TNF-α; PMA stimulated, compound 10 μM): 50%
inhibition at 50 µM (TNF-α; PMA stimulated, compound 50 μM): 100%
inhibition at 10 µM (TNF-α; [2]): 36%
inhibition at 50 µM (TNF-α; [3]): 97%
inhibition at 10 µM (IL-1α; LPS stimulated, compound 10 μM): 74%
inhibition at 50 µM (IL-1α; LPS stimulated, compound 50 μM): 82%
inhibition at 10 µM (IL-1α; PMA stimulated, compound 10 μM): 54%
inhibition at 50 µM (IL-1α; PMA stimulated, compound 50 μM): 92%
inhibition at 10 µM (IL-1α; [2]): 60%
inhibition at 50 µM (IL-1α; [3]): 13%
inhibition at 10 µM (IL-6; LPS stimulated, compound 10 μM): 38%
inhibition at 50 µM (IL-6; LPS stimulated, compound 50 μM): 100%
inhibition at 10 µM (IL-6; [2]): 0%
inhibition at 50 µM (IL-6; [3]): 100%
inhibition at 10 µM (IL-8; LPS stimulated, compound 10 μM): 41%
inhibition at 50 µM (IL-8; LPS stimulated, compound 50 μM): 100%
inhibition at 10 µM (IL-8; PMA stimulated, compound 10 μM): 52%
inhibition at 50 µM (IL-8; PMA stimulated, compound 50 μM): 100%
inhibition at 10 µM (IL-8; [2]): 0%
inhibition at 50 µM (IL-8; [3]): 52%
inhibition at 10 µM ([1]; PHA stimulated, compound 10 μM): 30%
inhibition at 50 µM ([1]; PHA stimulated, compound 50 μM): 102%
inhibition at 10 µM [1, 4]: 50%
inhibition at 50 µM [1, 5]: 100%
